Experimental data published in ChEMBL document CHEMBL2311416, “The discovery of potent and selective 4-aminothienopyridines as B-Raf kinase inhibitors” (Bioorg Med Chem Lett, 2013).
One block for each compound: values may come before it.

Key:
[1] = target: Serine/threonine-protein kinase B-raf (Homo sapiens, UniProt P15056); assay: Inhibition of B-Raf (unknown origin) by fluorescence polarization assay
Homo sapiens [2] = organism: Homo sapiens; assay: Selectivity ratio of IC50 for AKT1 (unknown origin) to IC50 for B-Raf (unknown origin)
Homo sapiens [3] = organism: Homo sapiens; assay: Selectivity ratio of IC50 for ALK5 (unknown origin) to IC50 for B-Raf (unknown origin)
Homo sapiens [4] = organism: Homo sapiens; assay: Selectivity ratio of IC50 for aurora-A (unknown origin) to IC50 for B-Raf (unknown origin)
Homo sapiens [5] = organism: Homo sapiens; assay: Selectivity ratio of IC50 for aurora-B (unknown origin) to IC50 for B-Raf (unknown origin)
Homo sapiens [6] = organism: Homo sapiens; assay: Selectivity ratio of IC50 for BTK (unknown origin) to IC50 for B-Raf (unknown origin)
Homo sapiens [7] = organism: Homo sapiens; assay: Selectivity ratio of IC50 for EGFR (unknown origin) to IC50 for B-Raf (unknown origin)
Homo sapiens [8] = organism: Homo sapiens; assay: Selectivity ratio of IC50 for ERBB2 (unknown origin) to IC50 for B-Raf (unknown origin)
Homo sapiens [9] = organism: Homo sapiens; assay: Selectivity ratio of IC50 for GSK3beta (unknown origin) to IC50 for B-Raf (unknown origin)
Homo sapiens [10] = organism: Homo sapiens; assay: Selectivity ratio of IC50 for IGF1R (unknown origin) to IC50 for B-Raf (unknown origin)
Homo sapiens [11] = organism: Homo sapiens; assay: Selectivity ratio of IC50 for IKK2 (unknown origin) to IC50 for B-Raf (unknown origin)
Homo sapiens [12] = organism: Homo sapiens; assay: Selectivity ratio of IC50 for JNK3 (unknown origin) to IC50 for B-Raf (unknown origin)
Homo sapiens [13] = organism: Homo sapiens; assay: Selectivity ratio of IC50 for PKA (unknown origin) to IC50 for B-Raf (unknown origin)
Homo sapiens [14] = organism: Homo sapiens; assay: Selectivity ratio of IC50 for ROCK1 (unknown origin) to IC50 for B-Raf (unknown origin)
Homo sapiens [15] = organism: Homo sapiens; assay: Selectivity ratio of IC50 for SGK1 (unknown origin) to IC50 for B-Raf (unknown origin)
Homo sapiens [16] = organism: Homo sapiens; assay: Selectivity ratio of IC50 for SYK (unknown origin) to IC50 for B-Raf (unknown origin)
Homo sapiens [17] = organism: Homo sapiens; assay: Selectivity ratio of IC50 for ZAP70 (unknown origin) to IC50 for B-Raf (unknown origin)

Chain of Serine/threonine-protein kinase B-raf (P15056 whole entry): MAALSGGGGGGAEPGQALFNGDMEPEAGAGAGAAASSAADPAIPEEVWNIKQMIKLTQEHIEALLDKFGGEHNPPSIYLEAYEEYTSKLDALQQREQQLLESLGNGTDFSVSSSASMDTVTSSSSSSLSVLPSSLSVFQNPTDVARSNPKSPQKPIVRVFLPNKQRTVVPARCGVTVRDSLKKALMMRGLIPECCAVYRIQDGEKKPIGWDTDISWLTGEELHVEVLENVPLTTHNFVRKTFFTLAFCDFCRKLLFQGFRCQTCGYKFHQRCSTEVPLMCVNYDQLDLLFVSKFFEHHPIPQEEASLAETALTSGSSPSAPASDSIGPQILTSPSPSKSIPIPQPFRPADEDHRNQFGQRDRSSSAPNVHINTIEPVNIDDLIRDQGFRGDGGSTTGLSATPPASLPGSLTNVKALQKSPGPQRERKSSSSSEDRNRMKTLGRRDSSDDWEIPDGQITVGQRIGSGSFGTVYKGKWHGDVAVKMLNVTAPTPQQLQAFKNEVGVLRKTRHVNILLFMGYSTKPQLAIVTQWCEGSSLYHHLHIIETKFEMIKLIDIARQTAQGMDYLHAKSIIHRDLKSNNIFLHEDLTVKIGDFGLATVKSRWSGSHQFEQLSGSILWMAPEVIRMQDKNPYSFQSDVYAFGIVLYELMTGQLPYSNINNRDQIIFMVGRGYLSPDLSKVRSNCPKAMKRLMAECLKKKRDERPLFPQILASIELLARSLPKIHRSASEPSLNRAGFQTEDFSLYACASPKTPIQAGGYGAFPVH

Compound: Nc1ncc(-c2cccnc2)c2scc(-c3cccc(NS(=O)(=O)c4ccccc4)c3)c12
IC50 [1]: > 10 µM

Compound: Cc1noc(C)c1NC(=O)Nc1cccc(-c2csc3c(-c4cccnc4)cnc(N)c23)c1
IC50 [1]: 0.692 µM

Compound: Nc1cccc(-c2csc3c(-c4cccnc4)cnc(N)c23)c1
IC50 [1]: > 10 µM

Compound: Nc1ncc(-c2cccnc2)c2scc(-c3cccc(NC(=O)Nc4cc(C(F)(F)F)ccc4F)c3)c12
IC50 [1]: 0.0214 µM

Compound: Nc1ncc(-c2cccnc2)c2scc(-c3cccc(NC(=O)Nc4ccc(C(F)(F)F)cc4)c3)c12
IC50 [1]: 0.0251 µM

Compound: Nc1ncc(-c2cccnc2)c2scc(-c3cccc(NC(=O)Cc4cccs4)c3)c12
IC50 [1]: 0.045 µM

Compound: Nc1ncc(-c2cccnc2)c2scc(-c3cccc(NC(=O)c4cc(F)ccc4F)c3)c12
IC50 [1]: 0.049 µM

Compound: Nc1ncc(-c2cccnc2)c2scc(-c3cccc(NC(=O)NC4CCCCC4)c3)c12
IC50 [1]: 0.0309 µM

Compound: Cn1cccc1C(=O)Nc1cccc(-c2csc3c(-c4cccnc4)cnc(N)c23)c1
IC50 [1]: 4.17 µM

Compound: Nc1ncc(-c2cccnc2)c2scc(-c3cccc(NC(=O)c4ccccc4)c3)c12
IC50 [1]: 0.093 µM

Compound: CC(C)(C)NC(=O)Nc1cccc(-c2csc3c(-c4cccnc4)cnc(N)c23)c1
IC50 [1]: 7.94 µM

Compound: Nc1ncc(-c2cccnc2)c2scc(-c3cccc(NC(=O)Nc4ccc(OCc5ccccc5)cc4)c3)c12
IC50 [1]: 0.933 µM

Compound: Nc1ncc(-c2cccnc2)c2scc(-c3cccc(NC(=O)C4CCCCC4)c3)c12
IC50 [1]: 1.55 µM

Continued by falling IC50 [1], values first:

IC50 [1]: 0.0209 µM
Compound: Nc1ncc(-c2cccnc2)c2scc(-c3cccc(NC(=O)NCc4ccccc4)c3)c12

IC50 [1]: 0.0195 µM
Compound: Nc1ncc(-c2cccnc2)c2scc(-c3cccc(NC(=O)Nc4c(F)cccc4F)c3)c12

IC50 [1]: 0.019 µM
Compound: Nc1ncc(-c2cccnc2)c2scc(-c3cccc(NC(=O)Cc4ccccc4)c3)c12

IC50 [1]: 0.0166 µM
Ratio IC50 (Homo sapiens [2]): > 100
Ratio IC50 (Homo sapiens [3]): > 100
Ratio IC50 (Homo sapiens [4]): > 100
Ratio IC50 (Homo sapiens [5]): > 100
Ratio IC50 (Homo sapiens [6]): > 100
Ratio IC50 (Homo sapiens [7]): > 100
Ratio IC50 (Homo sapiens [8]): > 100
Ratio IC50 (Homo sapiens [9]): > 100
Ratio IC50 (Homo sapiens [10]): > 100
Ratio IC50 (Homo sapiens [11]): > 100
Ratio IC50 (Homo sapiens [12]): > 100
Ratio IC50 (Homo sapiens [13]): > 100
Ratio IC50 (Homo sapiens [14]): > 100
Ratio IC50 (Homo sapiens [15]): > 100
Ratio IC50 (Homo sapiens [16]): > 100
Ratio IC50 (Homo sapiens [17]): > 100
Compound: Nc1ncc(-c2cccnc2)c2scc(-c3cccc(NC(=O)Nc4ccc(Cl)c(C(F)(F)F)c4)c3)c12

IC50 [1]: 0.0138 µM
Compound: Nc1ncc(-c2cccnc2)c2scc(-c3cccc(NC(=O)Nc4ccccc4)c3)c12

IC50 [1]: 0.0096 µM
Compound: COc1cccc(NC(=O)Nc2cccc(-c3csc4c(-c5cccnc5)cnc(N)c34)c2)c1

IC50 [1]: 0.0051 µM
Ratio IC50 (Homo sapiens [2]): > 40
Ratio IC50 (Homo sapiens [3]): > 40
Ratio IC50 (Homo sapiens [4]): > 40
Ratio IC50 (Homo sapiens [5]): > 40
Ratio IC50 (Homo sapiens [6]): > 40
Ratio IC50 (Homo sapiens [7]): > 40
Ratio IC50 (Homo sapiens [8]): > 40
Ratio IC50 (Homo sapiens [9]): > 40
Ratio IC50 (Homo sapiens [10]): > 40
Ratio IC50 (Homo sapiens [11]): > 40
Ratio IC50 (Homo sapiens [12]): > 40
Ratio IC50 (Homo sapiens [13]): > 40
Ratio IC50 (Homo sapiens [14]): > 40
Ratio IC50 (Homo sapiens [15]): > 40
Ratio IC50 (Homo sapiens [16]): > 40
Ratio IC50 (Homo sapiens [17]): > 40
Compound: Nc1ncc(-c2cccnc2)c2scc(-c3cccc(NC(=O)c4cccc(C(F)(F)F)c4)c3)c12
